Experimental data taken from patent US6916773B2, “Non-surfactant solubilizing agent” (Ecolab, Inc., priority 2002, dated 2005).

What was measured:
Assay type in all cases: physicochemical
Conditions in all cases: room temperature
[1] = Sodium benzoate added to aqueous solvent solution until single phase observed (PPh)
Description: (§1) Aqueous solutions of dipropylene glycol n-butyl ether(DPnB), propylene glycol phenyl ether(PPh), and benzyl alcohol were prepared and sodium benzoate was added at room temperature to each solution until a single phase solution was observed.

[2] = Sodium benzoate added to aqueous solvent solution until single phase observed (DPnB)
Description: as §1

[3] = Sodium benzoate added to aqueous solvent solution until single phase observed (benzyl alcohol)
Description: as §1

O=C([O-])c1ccccc1.[Na+] [Na Benzoate, sodium benzoate]
Na Benzoate at which a single phase solution was observed ([1]; Water 43 wt %, PPh 43 wt %): 14 wt % | Na Benzoate at which a single phase solution was observed ([1]; Water 58 wt %, PPh 25 wt %): 17 wt % | Na Benzoate at which a single phase solution was observed ([1]; Water 63 wt %, PPh 16 wt %): 21 wt % | Na Benzoate at which a single phase solution was observed ([1]; Water 69 wt %, PPh 12 wt %): 19 wt % | Na Benzoate at which a single phase solution was observed ([1]; Water 74 wt %, PPh 8 wt %): 18 wt % | Na Benzoate at which a single phase solution was observed ([1]; Water 79 wt %, PPh 4 wt %): 17 wt % | Na Benzoate at which a single phase solution was observed ([1]; Water 83 wt %, PPh 2 wt %): 15 wt % | Na Benzoate at which a single phase solution was observed ([1]; Water 93 wt %, PPh 1 wt %): 6 wt % | Na Benzoate at which a single phase solution was observed ([2]; Water 45 wt %, DPnB 45 wt %): 10 wt % | Na Benzoate at which a single phase solution was observed ([2]; Water 62 wt %, DPnB 26 wt %): 12 wt % | Na Benzoate at which a single phase solution was observed ([2]; Water 70 wt %, DPnB 18 wt %): 12 wt % | Na Benzoate at which a single phase solution was observed ([2]; Water 75 wt %, DPnB 13 wt %): 12 wt % | Na Benzoate at which a single phase solution was observed ([2]; Water 79 wt %, DPnB 9 wt %): 12 wt % | Na Benzoate at which a single phase solution was observed ([2]; Water 86 wt %, DPnB 4 wt %): 10 wt % | Na Benzoate at which a single phase solution was observed ([2]; Water 98 wt %, DPnB 2 wt %): 0 wt % | Na Benzoate at which a single phase solution was observed ([2]; Water 99 wt %, DPnB 1 wt %): 0 wt % | Na Benzoate at which a single phase solution was observed ([3]; Water 44 wt %, Benzyl Alcohol 44 wt %): 12 wt % | Na Benzoate at which a single phase solution was observed ([3]; Water 61 wt %, Benzyl Alcohol 26 wt %): 13 wt % | Na Benzoate at which a single phase solution was observed ([3]; Water 69 wt %, Benzyl Alcohol 17 wt %): 14 wt % | Na Benzoate at which a single phase solution was observed ([3]; Water 74 wt %, Benzyl Alcohol 13 wt %): 13 wt % | Na Benzoate at which a single phase solution was observed ([3]; Water 78 wt %, Benzyl Alcohol 9 wt %): 13 wt % | Na Benzoate at which a single phase solution was observed ([3]; Water 85 wt %, Benzyl Alcohol 4 wt %): 11 wt % | Na Benzoate at which a single phase solution was observed ([3]; Water 98 wt %, Benzyl Alcohol 2 wt %): 0 wt % | Na Benzoate at which a single phase solution was observed ([3]; Water 99 wt %, Benzyl Alcohol 1 wt %): 0 wt %
